This is an account of results in US12552752B2, “Atropisomers of pyridazinone derivatives as herbicides” (FMC Corporation, priority 2020, dated 2026).

Common to all, as to assay type: in vivo
In one test the test system is corn (CPI, Zea mays). The test can be described thus: Test A postemergence, corn. The note with it: POST, 0 to 100 scale, approximately 10 d. From the text: (§1) Seeds of plant species selected from barnyardgrass (BYG, Echinochloa crus-galli), kochia (KOC, Kochia scoparia), ragweed (common ragweed, Ambrosia elatior), ryegrass, Italian (RGI, Lolium multiflorum), foxtail, giant (FTI, Setaria faberii), foxtail, green (Setaria viridis) and pigweed (PWR, Amaranthus retroflexus) were planted into a blend of loam soil and sand and treated preemergence with a directed soil spray using test chemicals formulated in a non-phytotoxic solvent mixture which included a surfactant. At the same time, plants selected from these weed species and also wheat (WWT, Triticum aestivum), corn (CPI, Zea mays), blackgrass (BKG, Alopecurus myosuroides) and galium (GAL, catchweed bedstraw, Galium aparine) were planted in pots containing the same blend of loam soil and sand and treated with postemergence applications of test chemicals formulated in the same manner Plants ranged in height from 2 to 10 cm and were in the one- to two-leaf stage for the postemergence treatment. Treated plants and untreated controls were maintained in a greenhouse for approximately 10 d, after which time all treated plants were compared to untreated controls and visually evaluated for injury. Plant response ratings, summarized in Tables 1-4, are based on a 0 to 100 scale where 0 is no effect and 100 is complete control. A dash (−) response means no test result. The ratings are followed by a letter representing the symptomology where S is Albinism, C is Chlorosis, G is Growth Inhibition and E is Emergence.

For test [1], the system named is wheat (WWT, Triticum aestivum). The test can be described thus: Test A postemergence, wheat. Conditions: POST, 0 to 100 scale, approximately 10 d.
Description: as §1

Test [2] concerns galium (GAL, catchweed bedstraw, Galium aparine). The test can be described thus: Test A postemergence, galium. Conditions: POST, 0 to 100 scale, approximately 10 d.
Description: as §1

The subject of test [3] is kochia (KOC, Kochia scoparia). Put plainly: Test A postemergence, kochia. Conditions: POST, 0 to 100 scale, approximately 10 d.
Description: as §1

Test [4] has as its system pigweed (PWR, Amaranthus retroflexus). The test can be described thus: Test A postemergence, pigweed. The note with it: POST, 0 to 100 scale, approximately 10 d.
Description: as §1

Test [5] relates to ragweed (common ragweed, Ambrosia elatior). Put plainly: Test A postemergence, ragweed. The note with it: POST, 0 to 100 scale, approximately 10 d.
Description: as §1

Test [6] has as its system blackgrass (BKG, Alopecurus myosuroides). The test can be described thus: Test A postemergence, blackgrass. The note with it: POST, 0 to 100 scale, approximately 10 d.
Description: as §1

Test [7] has as its system ryegrass, Italian (RGI, Lolium multiflorum). The test can be described thus: Test A postemergence, Italian ryegrass. The note with it: POST, 0 to 100 scale, approximately 10 d.
Description: as §1

The test system of test [8] is barnyardgrass (BYG, Echinochloa crus-galli). The test can be described thus: Test A postemergence, barnyardgrass. Conditions: POST, 0 to 100 scale, approximately 10 d.
Description: as §1

Test [9] relates to foxtail, giant (FTI, Setaria faberii). Put plainly: Test A postemergence, giant foxtail. The note with it: POST, 0 to 100 scale, approximately 10 d.
Description: as §1

Test [10] has as its system kochia (KOC, Kochia scoparia). Put plainly: Test A preemergence, kochia. The note with it: PRE, 0 to 100 scale, approximately 10 d.
Description: as §1

The subject of test [11] is pigweed (PWR, Amaranthus retroflexus). Put plainly: Test A preemergence, pigweed. Conditions: PRE, 0 to 100 scale, approximately 10 d.
Description: as §1

Test [12] concerns ryegrass, Italian (RGI, Lolium multiflorum). The test can be described thus: Test A preemergence, Italian ryegrass. Conditions: PRE, 0 to 100 scale, approximately 10 d.
Description: as §1

Test [13] relates to barnyardgrass (BYG, Echinochloa crus-galli). Put plainly: Test A preemergence, barnyardgrass. Conditions: PRE, 0 to 100 scale, approximately 10 d.
Description: as §1

Test [14] deals with foxtail, giant (FTI, Setaria faberii). Put plainly: Test A preemergence, giant foxtail. Conditions: PRE, 0 to 100 scale, approximately 10 d.
Description: as §1

Setting [15] is: 125 g ai/ha, listed as drawing 28.
Setting [16] is: 31 g ai/ha, listed as drawing 28.
Where [17] appears, read: 125 g ai/ha, listed as drawing 27.
The mark [18] stands for this setting: 31 g ai/ha, listed as drawing 27.
Setting [19] is: 31 g ai/ha, listed as drawing 26.
Setting [20] is: 125 g ai/ha, listed as drawing 26.
Where [21] appears, read: 31 g ai/ha, listed as drawing 25.
Setting [22] is: 125 g ai/ha, listed as drawing 25.

As for `Cc1ccc2ccccc2c1-c1c(O)c(Cl)nn(C)c1=O` (racemic) [3 (Enantiomer 3B)], in the test on corn (CPI, Zea mays) (1000 g ai/ha), the “Plant response rating CPI” value is given as 50 S. The “Plant response rating WWT” value in test [1] (setting [15]) came out at 30 S; in test [1] (1000 g ai/ha), 90 S. For the same compound, the “Plant response rating GAL” value in test [2] (setting [16]), in test [2] (setting [15]) and in test [2] (1000 g ai/ha) was 100 C 100 C 100 C 100 C 100 C throughout. Besides, the “Plant response rating KOC” value in test [3] (1000 g ai/ha) was 100 C; in test [10] (setting [16]), 10 S; in test [10] (1000 g ai/ha) it was 100 C. In addition, the “Plant response rating PWR” value in [4] (setting [16]) is on record as 100 C; in [4] (1000 g ai/ha) it was 100 C; in test [11] (setting [16]), 90 C; in test [11] (1000 g ai/ha), 100 C. Moreover, the “Plant response rating RWC” value in test [5] (setting [16]) is recorded as 100 C; in [5] (1000 g ai/ha), 90 S. Besides, the figures for the “Plant response rating BKG” value in [6] (setting [16]) and in [6] (1000 g ai/ha) were 0 and 80 S, respectively. The “Plant response rating RGI” value in test [7] (setting [15]), in test [7] (1000 g ai/ha) and in [12] (1000 g ai/ha) was 100 S in each case. The results for the “Plant response rating BYG” value in [8] (1000 g ai/ha), in test [13] (setting [16]) and in test [13] (1000 g ai/ha) were 90 S, 80 S and 100 C, respectively. In addition, the “Plant response rating FTI” value amounted to 90 S in [9] (setting [15]), 100 S in test [9] (1000 g ai/ha), 100 C in [14] (setting [15]) and 100 C in test [14] (1000 g ai/ha).

In the case of `Cc1ccc2ccccc2c1-c1c(O)c(Cl)nn(C)c1=O` (racemic) [3 (Enantiomer 3A)], in [1] (31 g ai/ha), the “Plant response rating WWT” value turned out to be 0. The “Plant response rating GAL” value in test [2] (setting [17]) is 100 C. In addition, the “Plant response rating KOC” value in test [3] (125 g ai/ha) is listed as 90 S. Besides, the “Plant response rating PWR” value in test [4] (125 g ai/ha) worked out at 100 C. Also, the “Plant response rating RWC” value in test [5] (setting [17]) amounted to 100 C. Moreover, the “Plant response rating FTI” value in [9] (setting [18]) is on record as 20 S. In addition, the “Plant response rating RGI” value in test [12] (setting [18]) is reported as 10 S. Also, the “Plant response rating BYG” value in test [13] (setting [17]) turned out to be 50 S.

Turning to `Cc1ccc2ccc(C)c(-c3c(O)c(Cl)nn(C)c3=O)c2c1` (single isomer, unassigned) [2 (Enantiomer 2B)], the “Plant response rating CPI” value came to 0 in the test on corn (CPI, Zea mays) (setting [19]) and 30 G with corn (CPI, Zea mays) (125 g ai/ha). Further, the “Plant response rating WWT” value in test [1] (setting [19]) is reported as 0; in test [1] (setting [20]), 30 S. Besides, the “Plant response rating GAL” value stood at 100 C in test [2] (setting [19]) and 90 C in test [2] (setting [20]). Besides, the “Plant response rating KOC” value is 60 S in test [3] (31 g ai/ha), 70 S in test [3] (setting [20]), 0 in test [10] (setting [19]) and 90 C in [10] (setting [20]). In addition, the “Plant response rating PWR” value in test [4] (125 g ai/ha) was determined as 100 C 100 C 100 C 100 C. For the same compound, the “Plant response rating RWC” value in test [5] (setting [19]) and in [5] (setting [20]) was 100 C 100 C throughout. The “Plant response rating BKG” value amounted to 30 C in test [6] (setting [19]) and 40 S in test [6] (setting [20]). In addition, the “Plant response rating RGI” value in test [7] (setting [19]) is 100 C; in [7] (setting [20]) it was 100 C; in test [12] (setting [19]), 80 S; in [12] (setting [20]), 100 S. For the same compound, the “Plant response rating BYG” value was 80 C in test [8] (setting [19]), 90 C in [8] (setting [20]), 90 S in test [13] (setting [19]) and 100 C in test [13] (setting [20]). Also, the “Plant response rating FTI” value came out at 80 S in test [9] (setting [19]), 90 S in test [9] (setting [20]), 100 C in test [14] (setting [19]) and 100 C in [14] (setting [20]).

With `Cc1ccc2ccc(C)c(-c3c(O)c(Cl)nn(C)c3=O)c2c1` (single isomer, unassigned) [2 (Enantiomer 2A)], the “Plant response rating CPI” value with corn (CPI, Zea mays) (setting [21]) came out at 10 G; in the test on corn (CPI, Zea mays) (125 g ai/ha) it was 30 G. Besides, the “Plant response rating WWT” value in [1] (setting [21]) and in [1] (setting [22]) was 0 each time. The “Plant response rating GAL” value in test [2] (setting [21]) and in test [2] (setting [22]) was 100 C 100 C throughout. The “Plant response rating KOC” value was found to be 60 S in test [3] (31 g ai/ha), 80 S in test [3] (setting [22]), 10 C in test [10] (setting [21]) and 80 S in [10] (setting [22]). Besides, the “Plant response rating PWR” value in test [4] (31 g ai/ha), in [4] (125 g ai/ha), in test [11] (31 g ai/ha) and in test [11] (125 g ai/ha) was 100 C 100 C 100 C 100 C each time. In addition, the “Plant response rating RWC” value in test [5] (setting [21]) and in test [5] (setting [22]) was 90 S 90 S throughout. Moreover, the results for the “Plant response rating BKG” value in test [6] (setting [21]) and in test [6] (setting [22]) were 0 and 20 S, respectively. Also, the “Plant response rating RGI” value in [7] (setting [21]) is listed as 30 S; in test [7] (setting [22]) it was 40 S; in test [12] (setting [21]), 20 G; in test [12] (setting [22]) it was 20 G. The “Plant response rating BYG” value in [8] (setting [21]) stood at 20 C; in test [8] (setting [22]) it was 30 C; in [13] (setting [21]), 0; in test [13] (setting [22]), 50 G. Also, the “Plant response rating FTI” value in [9] (setting [21]) is 30 S; in test [9] (setting [22]), 60 S; in test [14] (setting [21]) it was 20 S; in test [14] (setting [22]) it was 40 S.
